The source of these data is patent US7482371B2, “N-phenylbenzamide derivatives as drugs for the treatment of COPD” (Rottapharm S.p.A., priority 2004, dated 2009).

Experiment [1] relates to newborn rat cultured DRG neurons. The experiment in a line: [Ca2+]i mobilization in cultured DRG neurons (Fura-2). Type of experiment: cell-based. On the procedure:
Dorsal root ganglia (DRG) were removed from 1-3 days old rats and dissociated into single cells according to well established procedures. Cells, plated on coated glass coverslips were loaded with Fura-2-AM-ester to detect relative intracellular calcium ([Ca^2+]i) changes.
During the Ca^2+ fluorescence the cells were excited with electrical stimulation (10 Hz, 1 ms, 0.40 mA/cm^2 for 10 sec) twice with a resting period between each stimulation of 20 min. These experiments were performed in the presence or absence of 100 nM charybdotoxin.

Experiment [2] has as its system slices of guinea pig airways. The experiment in a line: CGRP-LI outflow from slices of guinea pig airways (EIA). The experiment is classed as cell-based. Here is the method: (§1) Slices of guinea pig trachea and bronchi or of rat dorsal spinal cord were prepared and transferred to perfusion chambers and perfused. After an equilibration period, samples were collected before, during and after the delivery of an excitatory stimulus (KCl 80 mM). The effect of Andolast was compared with the effect of its vehicle. CGRP-like immunoreactivity (GCRP-LI) was measured by enzyme immunoassay (EIA).

A further experiment concerns T lymphocytes (Th2). Briefly: Treatment course in atopic mild-moderate asthmatic patients. Conditions: standard treatment course. The experiment is classed as in vivo, human.
The subject of experiment [3] is slices of rat dorsal spinal cord. Briefly: CGRP-LI outflow from slices of rat dorsal spinal cord (EIA). The experiment is classed as cell-based. On the procedure:
as §1
In the rat dorsal spinal cord the experiments with Andolast were performed also in the presence of 100 nM charybdotoxin.

For experiment [4], the system named is human B lymphocytes from allergic donors. Briefly: IL-4 dependent IgE synthesis by human B lymphocytes. The experiment is classed as cell-based.
The test system of experiment [5] is guinea pig isolated bronchial rings. The experiment in a line: eNANC contractile response of isolated guinea pig bronchial rings. The experiment is classed as cell-based. Here is the method:
Guinea pig bronchial rings were mounted in organ baths. After an equilibration period the eNANC contractile response to EFS (5 Hz, 20 sec, 0.5 ms pulse width at 40 V) in the presence of atropine (1 μM) was studied. The effects of Andolast or its vehicle on the eNANC were studied in parallel experiments in the presence or absence of 100 nM charybdotoxin. The ability of Andolast to affect the direct bronchoconstrictor activity of SP was also studied.

Molecules are shown by their SMILES.

Regarding `O=C(Nc1ccc(-c2nn[nH]n2)cc1)c1ccc(-c2nn[nH]n2)cc1` [Andolast, N-4-(1H-tetrazol-5-yl)phenyl-4-(1H-tetrazol-5-yl)benzamide], the “inhibitory effect on EFS-induced [Ca2+]i mobilization in presence of charybdotoxin” value in experiment [1] (100 nM charybdotoxin (ChTX)) is listed as “completely reversed”. The “response to capsaicin ([Ca2+]i)” value in experiment [1] (capsaicin 0.1 μM, pretreatment with Andolast 10 μM) is reported as “not affected”. The “mobilization of [Ca2+]i in response to ionomycin” value in experiment [1] (pre-treatment with Andolast 10 μM or its vehicle) is “similar”. In addition, the “response to EFS ([Ca2+]i mobilization)” value in experiment [1] (pretreatment with Andolast compared to vehicle, EFS 10 Hz, 1 ms, 0.40 mA/cm2 for 10 sec) is listed as “diminished the response to EFS”. The “outflow of CGRP-LI (without stimulus)” value is “did not cause any significant increase” in experiment [2] (Andolast 0.1-1 μM, guinea pig airway slices) and “did not cause any significant increase” in experiment [3] (Andolast 0.1-1 μM, rat dorsal spinal cord slices). For the same compound, the inhibition at 1 µM in experiment [2] (Cavia porcellus, Andolast 1 μM, KCl 80 mM, read-out: inhibition of the CGRP-LI outflow induced by high K+ medium) was found to be 67%. Besides, the “T lymphocytes (Th2) production of IL-5” value in the experiment on T lymphocytes (Th2) is given as “inhibitory effect”. Further, in the experiment with T lymphocytes (Th2), the “percentage of eosinophils in the sputum” value is listed as “decrease”. The “inhibition of high K+ induced CGRP-LI outflow in presence of charybdotoxin” value in experiment [3] (100 nM charybdotoxin) was “completely abrogated”. In experiment [3] (Andolast 1 μM, KCl 80 mM), the “maximum inhibition of the outflow of CGRP-LI induced by high K+ medium” value is on record as 48 % of vehicle. Also, in experiment [3] (KCl 80 mM, rat dorsal spinal cord slices), the “outflow of CGRP-LI induced by high K+ medium” value is given as “concentration-dependent inhibition”. Moreover, in experiment [4], the “IL-4 dependent IgE synthesis” value is listed as “potent inhibitory effect”. The “contractile response to SP” value in experiment [5] (Andolast 10 μM) is “did not affect”. In addition, in experiment [5] (Cavia porcellus, 10 μM Andolast, atropine 1 μM, read-out: maximum inhibition of the contractile response to EFS), the inhibition at 10 µM is 45%. Moreover, in experiment [5] (charybdotoxin 0.1 μM), the “effect on EFS contraction in presence of charybdotoxin” value is listed as “completely abrogated”. The “contractile response to EFS (eNANC)” value in experiment [5] (in the presence of atropine (1 μM), pretreatment with Andolast) is recorded as “diminished dose-dependently”.

In general, inhibition refers to the share of the control response that was lost under treatment.
